Laboratory results as given in patent publication US20210290676A1, “IMPROVING THE EFFICACY AND SAFETY OF ADOPTIVE CELLULAR THERAPIES” (University of Southern California, priority 2018, published 2021).

How the values were obtained:
[1] = system: Pgp+ (DiOC2(3)-dye effluxing cells) and CD62L+ T cells; assay: DiOC2(3) dye efflux plus CD62L-APC staining, flow cytometry of inhibitor-treated T cells; assay type: cell-based, human; details: treatment for 13 days, IL2 + CD3 and CD28 antibodies
Procedure, shortened: (§1)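 Donor PBMC-derived T cells, stimulated with IL2 (50 IU/ml) and/or CD3/CD28 antibodies (30 ng/ml), were exposed to inhibitors from day 1 for about 13 days with periodic drug re-addition. Cells were loaded with DiOC2(3) (60 ng/ml, 4° C, 40 min), effluxed at 37° C for 90 min, and optionally stained with CD62L-APC. Flow cytometry scored DiOC2(3)-dull (Pgp+) and CD62L+ populations.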

Nalm6-GLuc cells = assay: Blinatumomab induced cell death by inhibitor-treated T cells, Matador cytotoxicity assay; assay type: cell-based; details: Blinatumomab 100 ng/million T cells, overnight
Procedure: After 20 days of treatment with the inhibitors, cells from the preceding experiment were tested for their ability to induce Blinatumomab induced cell death using the Matador cytotoxicity assay. For this purpose, untreated and inhibitors-treated T cells were plated in a 24 well plate at 2×10^5 cells/well either alone or in the presence of 2×10^5 Nalm6-GLuc cells in XVIVO medium without any additional growth factors. Blinatumomab (Blincyto) was added at final concentration of 100 ng/million T cells. Cells were cultured overnight and next day supernatant was collected and assayed using the Matador assay. For the Matador Assay, 15 μl of supernatant was added to 15 μl of XVIVO medium in each well of a 384-well plate and hGLuc assay was done by adding 15 μl of 1:100 CTZ per well in well mode.

[2] = system: Pgp+ (DiOC2(3)-dye effluxing) T cells; assay: DiOC2(3) dye efflux flow cytometry of inhibitor-treated T cells; assay type: cell-based, human; details: treatment for 13 days, IL2 + CD3 and CD28 antibodies
Procedure, shortened: as §1

[3] = system: CD8+CD45RA+CCR7+CD62L+ T cells; assay: Flow cytometry for CD8, CD45RA, CCR7 and CD62L on inhibitor-treated T cells; assay type: cell-based, human; details: cells cultured for 14 days
Procedure, shortened: (§2)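 Donor T cells were isolated from PBMC with CD3 microbeads and activated overnight in XVIVO 15 with IL2 50 IU/ml plus 30 ng/ml anti-CD3/CD28. They were treated with drugs from day 1, with medium and drug refreshed on days 7 and 13. After 13–14 days, cells were stained for CD8, CD45RA, CCR7 and CD62L (4 °C, 1 h) and analysed by flow cytometry.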

[4] = system: CD45RA+CCR7+CD62L+ T cells; assay: Flow cytometry for CD45RA, CCR7 and CD62L on inhibitor-treated T cells (all T cells); assay type: cell-based, human; details: cells cultured for 14 days
Procedure, shortened: as §2

[5] = Leukapheresis with and without mobilization and manufacturing of CAR-T/TCR-T cells from cancer patients; assay type: in vivo, human
Procedure: A study is conducted to compare the generation of cell therapy products from cancer patients who have received 2 or more cycles of prior chemotherapy. Patients with different types of different cancers (e.g., diffuse large B cell lymphoma, acute B-ALL, CLL, multiple myeloma, breast cancer, ovarian cancer, lung cancer etc.) are eligible. Leukapheresis products are collected from the subjects with and without mobilization with Perixafor (0.24 mg/kg subcutaneously daily on days 1-3). T cells are isolated and used for manufacturing of CAR-T and TCR-T cells using lentiviral mediated gene transduction as described in the preceding sections.

T cells = assay: In vitro expansion of CAR/TCR T cells with bispecific engagers and antigen presenting cells or substrate (CFSE staining); assay type: cell-based, human
Procedure: Buffy coat cells are obtained from healthy de-identified adult donors from the Blood Bank and used to isolate peripheral blood mononuclear cells (PBMC) by Ficoll-Hypaque gradient centrifugation. PBMC are either used as such or used to isolate T cells using CD3 magnetic microbeads (Miltenyi Biotech) and following the manufacturer's instructions. PBMC or isolated T cells are re-suspended in XVIVO medium (Lonza) supplanted with 10 ng/ml CD3 antibody, 10 ng/ml CD28 antibody and 100 IU recombinant human-IL2. In an alternate embodiment, PBCM or T cells are activated by resuspending them at concentration of 5×10^5 cells/ml in fresh XVIVO media containing Blinatumomab (10 ng/ml) plus irradiated (100 Gy) REC-1 cells (Mantle Cell lymphoma; ATCC Catalog #CRL-3004) at concentration of 5×10^6 cells/ml in the presence of 50 IU recombinant human-IL2. In another alternate embodiment, the cell culture medium further contains a purified CD19×CD28 bispecific antibody (SEQ ID NO: 2708, 2705 or 2706) and/or a CD19×41BB bispecific antibody (SEQ ID NO: 2761, 2762, 2758 or 2764) each at concentration of about 10 ng/ml. Cells are cultured at 37° C., in a 5% CO2 humidified incubator. Cells are activated in the above medium for 1 day prior to infection with lentiviral vectors encoding a CAR or a TCR (e.g., SEQ ID NO: 2822 to 2835) or a TCR (SEQ ID NO: 2836). In general, primary cells (e.g. T cells) are infected in the morning using spin-infection (1800 rpm for 90 minutes at 37° C. with 300 μl of concentrated virus that has been re-suspended in XVIVO medium in the presence of 8 μg/ml of Polybrene® (Sigma, Catalog no. H9268). After the infection, the cells are pelleted and resuspended at concentration of 5×10^5 cells/ml in fresh XVIVO media containing Blinatumomab (10 ng/ml) plus irradiated (100 Gy) REC-1 (Mantle Cell lymphoma; ATCC Catalog #CRL-3004) cells (5×10^6 cells/ml) and 50 IU recombinant human-IL2. Cells are cultured in the above medium for 10-15 days. Culture media is supplemented with fresh REC-1 cells, blinatumomab and IL2 every 2-4 days. […] The expanded CAR-T cells are subsequently used for in vitro cytotoxicity studies, in vivo efficacy studies in NSG mice and clinical trial of patients with cancers expressing the antigens targeted by the CAR/TCR using methods known in the art.
The above experiment is also repeated using CD19+ RAJI and NALM6 cells. […] Thus, mantle cell lymphoma cells and, in particular, REC-1 cells are the preferred antigen presenting cells for expansion of T cells (e.g., CAR-T cells, TCR-T cells and TILs) when used in conjuction with bispecific T cell engagers that has at least one binding domain that binds to an antigen expressed on REC-1 (e.g, CD19, CD20, CD22 and BCMA). […]

CCC(CC)n1ccc2c(C(=O)NCc3c(C)cc(C)[nH]c3=O)cc(C#N)cc21 [EI1]
p5: double +ve pgp+ and CD62L-APC+ from Live cells ([1]; 500 nM): 10.2 | p5: double +ve pgp+ and CD62L-APC+ from Live cells ([1]; 1 μM): 19.21 | Blinatumomab induced cytotoxicity compared to untreated T cells (Nalm6-GLuc cells; T cells after 20 days of treatment at 500 nM): significant increase in cytotoxicity | p2: pgp+ from Live cells ([2]; 500 nM): 33.53 | p2: pgp+ from Live cells ([2]; 1 μM): 59.77 | GATE P4 CD8(PerCP)+, CD45RA(FITC)+, CCR7 (PE)+, CD62L(APC) ([3]; 500 nM): 76.19% | GATE P4 CD8(PerCP)+, CD45RA(FITC)+, CCR7 (PE)+, CD62L(APC) ([3]; 1 μM): 78.47% | GATE P6 CD45RA(FITC)+, CCR7 (PE)+, CD62L(APC) ([4]; 500 nM): 67.64% | GATE P6 CD45RA(FITC)+, CCR7 (PE)+, CD62L(APC) ([4]; 1 μM): 66.83%

Cc1cc(C)c(CNC(=O)c2cc(-c3ccc(CN4CCOCC4)cc3)cc3c2cnn3C2CCCC2)c(=O)[nH]1 [EPZ005687]
p5: double +ve pgp+ and CD62L-APC+ from Live cells ([1]; 10 nM): 5.21 | p5: double +ve pgp+ and CD62L-APC+ from Live cells ([1]; 100 nM): 3.87 | Blinatumomab induced cytotoxicity compared to untreated T cells (Nalm6-GLuc cells; T cells after 20 days of treatment at 100 nM): significant increase in cytotoxicity | p2: pgp+ from Live cells ([2]; 10 nM): 23.99 | p2: pgp+ from Live cells ([2]; 100 nM): 16.94 | GATE P4 CD8(PerCP)+, CD45RA(FITC)+, CCR7 (PE)+, CD62L(APC) ([3]; 10 nM): 74.86% | GATE P4 CD8(PerCP)+, CD45RA(FITC)+, CCR7 (PE)+, CD62L(APC) ([3]; 100 nM): 79.65% | GATE P6 CD45RA(FITC)+, CCR7 (PE)+, CD62L(APC) ([4]; 10 nM): 64.01% | GATE P6 CD45RA(FITC)+, CCR7 (PE)+, CD62L(APC) ([4]; 100 nM): 69.92%

Cc1cc(=O)n(C)c2cc(N3C(=O)CC[C@H](NS(=O)(=O)CC(C)C)[C@H]3c3ccc(Cl)cc3)ccc12 [LP99]
p5: double +ve pgp+ and CD62L-APC+ from Live cells ([1]; 500 nM): 3.52 | p5: double +ve pgp+ and CD62L-APC+ from Live cells ([1]; 1 μM): 4.18 | Blinatumomab induced cytotoxicity compared to untreated T cells (Nalm6-GLuc cells; T cells after 20 days of treatment at 1 μM): significant increase in cytotoxicity | p2: pgp+ from Live cells ([2]; 500 nM): 19.46 | p2: pgp+ from Live cells ([2]; 1 μM): 20.66 | GATE P4 CD8(PerCP)+, CD45RA(FITC)+, CCR7 (PE)+, CD62L(APC) ([3]; 500 nM): 79.25% | GATE P4 CD8(PerCP)+, CD45RA(FITC)+, CCR7 (PE)+, CD62L(APC) ([3]; 1 μM): 79.77% | GATE P6 CD45RA(FITC)+, CCR7 (PE)+, CD62L(APC) ([4]; 500 nM): 69.67% | GATE P6 CD45RA(FITC)+, CCR7 (PE)+, CD62L(APC) ([4]; 1 μM): 67.58%

c1cc(CN2CCCNCCNCCCNCC2)ccc1CN1CCCNCCNCCCNCC1 [Perixafor, 1,1′-[1,4-phenylenebis(methylene)]bis [1,4,8,11-tetraazacyclotetradecane]]
yield of T cells in the initial leukapheresis product ([5]; cancer patients with 2 or more cycles of prior chemotherapy, with versus without mobilization): improves the yield | effect on gene transduction, CAR/TCR expression, in vitro and in vivo expansion, cytotoxicity, cytokine production and anti-tumor efficacy of CAR-T/TCR-T products ([5]; with versus without mobilization): no major adverse effect

Blinatumomab: a CD19×CD3 bispecific antibody
expansion of CAR-T cells (T cells; 10 ng/ml with CD19-ECD beads, CD28 antibody 10 ng/ml and IL2 50 IU, 10-25 days): Robust expansion | expansion of cells, CFSE staining (T cells; 10 ng/ml with irradiated REC-1 cells and 50 IU IL2, 10-15 days): Robust expansion | degree of expansion of CAR or TCR expressing T cells (T cells; co-culture with CD19+ RAJI and NALM6 cells instead of REC-1 cells): less than that observed with REC-1 cells | expansion of CAR-expressing PBMC and/or T cells (T cells; combination of Blinatumomab, CD19×CD28 bispecific antibody, REC-1 cells and IL2): Robust expansion

GM-CSF: cytokine used as mobilization agent
yield of leukapheresis product for generation of CAR-T cells ([5]; mobilization prior to leukapheresis): improve the yield
